Measurements taken from patent US7449545B2, “Antimicrobial bolisin peptides” (IPF Pharmaceuticals GmbH, priority 2001, dated 2008).
Ends that are not written are not given here.

What was measured:
Assay type in all cases: cell-based
[1] = test system: Pseudomonas aeruginosa ATCC 9027; conditions: Mueller Hinton Broth; complete growth inhibition not achieved
Excerpt: (§1) The bolisin analogues of the present invention were examined for their suitability as antibiotic therapeutical agents by means of various biological tests. Thus, the chemically synthesized peptides were examined for their antimicrobial effectiveness against three Gram-positive and three Gram-negative bacterial strains as well as against a yeast.
(§2) The following microorganisms were used: • Gram-positive: Staphylococcus aureus ATCC 25923 • Enterococcus faecalis ATCC 51299 (vancomycin-resistant) • Streptococcus pneumoniae DSM 11865 (penicillin-resistant) • Gram-negative: Escherichia coli ATCC 25922 • Pseudomonas aeruginosa ATCC 9027 • Klebsiella pneumoniae ATCC 10031 • Yeast: Candida albicans ATCC 10231
(§3) The antibiotic activity of bolisin analogues was examined by determining the minimum inhibition concentration. The minimum inhibition concentration of an analogue designates the lowest peptide concentration which is required to inhibit the growth of microorganisms completely after an incubation time of 18±2 h. This method allows to obtain a quantitative result about the antimicrobial potency of the peptides. These examinations were performed by analogy with the recommendations (M7-A3) edited by the NCCLS (National Committee for Clinical Laboratory Standards) by applying a dilution test in a liquid medium using chemically synthesized peptides (peptide sequences according to claims 1 to 3). Mueller Hinton Broth was used as the test medium according to the NCCLS recommendations unless indicated otherwise. […] The minimum inhibition concentrations are stated in [μg/ml].
(§4) A complete growth inhibition could not be achieved in this case. For determining the minimum inhibition concentration, the following microorganisms were used: • 1. Staphylococcus aureus ATCC 25923 • 2. Enterococcus faecalis ATCC 51299 (vancomycin-resistant) • 3. Streptococcus pneumoniae DSM 11865 (penicillin-resistant) • 4. Escherichia coli ATCC 25922 • 5. Pseudomonas aeruginosa ATCC 9027 • 6. Klebsiella pneumoniae ATCC 10031 • 7. Candida albicans ATCC 10231

[2] = test system: Klebsiella pneumoniae ATCC 10031; conditions: ATCC 10031, 2 h
Excerpt: as §1, §2
as §3, with “The minimum inhibition concentration of an analogue designates the lowest peptide concentration which is required to inhibit the growth of microorganisms completely after an incubation time of 18±2 h.” left out
as §4

[3] = test system: Escherichia coli ATCC 25922; conditions: ATCC 25922, 2 h
Excerpt: as §1, §2
as §3, with “The minimum inhibition concentration of an analogue designates the lowest peptide concentration which is required to inhibit the growth of microorganisms completely after an incubation time of 18±2 h.” left out
as §4

[4] = test system: Candida albicans ATCC 10231; conditions: for minimum inhibition concentration: ATCC 10231, 2 h; for peptide concentration giving 75% inhibition of growth (value in parentheses): Mueller Hinton Broth, complete growth inhibition not achieved
Excerpt: as §1, §2
as §3, with “The minimum inhibition concentration of an analogue designates the lowest peptide concentration which is required to inhibit the growth of microorganisms completely after an incubation time of 18±2 h.” left out
as §4

[5] = test system: Enterococcus faecalis ATCC 51299 (vancomycin-resistant); conditions: ATCC 51299, 2 h
Excerpt: as §1, §2
as §3, with “The minimum inhibition concentration of an analogue designates the lowest peptide concentration which is required to inhibit the growth of microorganisms completely after an incubation time of 18±2 h.” left out
as §4

[6] = test system: Streptococcus pneumoniae DSM 11865 (penicillin-resistant); conditions: DSM 11865, 2 h
Excerpt: as §1, §2
as §3, with “The minimum inhibition concentration of an analogue designates the lowest peptide concentration which is required to inhibit the growth of microorganisms completely after an incubation time of 18±2 h.” left out
as §4

[7] = test system: Staphylococcus aureus ATCC 25923; conditions: ATCC 25923, 2 h
Excerpt: as §1, §2
as §3, with “The minimum inhibition concentration of an analogue designates the lowest peptide concentration which is required to inhibit the growth of microorganisms completely after an incubation time of 18±2 h.” left out
as §4

Row | Substance | peptide concentration giving 75% inhibition of growth (value in parentheses) [1] | minimum inhibition concentration [2] [µg/mL] | minimum inhibition concentration [3] [µg/mL] | minimum inhibition concentration [4] [µg/mL] | minimum inhibition concentration [5] [µg/mL] | minimum inhibition concentration [6] [µg/mL] | minimum inhibition concentration [7] [µg/mL] | peptide concentration giving 75% inhibition of growth (value in parentheses) [4]
1 | YIVYKIRWARKRSKALK-OH [BOL-49, YIVYKIRWARKRSKALK] | (12.5) μg/ml | 18.75 | 50 | 18.75 | 25 | 18.75 | 75 | 
2 | KYIVYKIRWARKRRKALK-OH [BOL-87, KYIVYKIRWARKRRKALK] | (9.375) μg/ml | 9.375 | 18.75 | 9.375 | 37.5 | 9.375 | 9.375 | 
3 | KYIVYKIRSARKRRKALK-OH [BOL-84, KYIVYKIRSARKRRKALK] | (75) μg/ml | 75 | >300 | 37.5 | >300 | 300 | >300 | 
4 | YIVYKIRSARKRWKAL [BOL-68, YIVYKIRSARKRWKAL] | (200) μg/ml | 300 | 200 | 200 | 200 | 300 | 200 | 
5 | YIVYKIRSAWKRRK-OH [BOL-69, YIVYKIRSAWKRRK] | (200) μg/ml | 300 | 150 | 37.5 | 150 | 200 | 300 | 
6 | YIVYKIRSAWKRKKALK-OH [BOL-58, YIVYKIRSAWKRKKALK] | (100) μg/ml | 100 | >300 |  | >300 | 300 | >300 | (75) μg/ml
7 | YIVYKIRSARKRWKALK-OH [BOL-46, YIVYKIRSARKRWKALK] | (100) μg/ml | 150 | 200 | 150 | 200 | 200 | 300 | 
8 | YIVWKIRSAWKRWKALK-OH [BOL-82, YIVWKIRSAWKRWKALK] | (9.375) μg/ml | 12.5 | 18.75 | 9.375 | 75 | 37.5 | 18.75 | 
9 | YIVYKIRSAKKRWKALK-OH [BOL-57, YIVYKIRSAKKRWKALK] | (200) μg/ml | 300 | >300 | 300 | >300 | >300 | >300 | 
10 | KYIVYKIRSAWKRSKALK-OH [BOL-85, KYIVYKIRSAWKRSKALK] | (37.5) μg/ml | 150 | >300 | 75 | 300 | 300 | >300 | 
11 | YIVYKIRWAKKRWKALK-OH [BOL-60, YIVYKIRWAKKRWKALK] | (18.75) μg/ml | 18.75 | 100 |  | 25 | 50 | 50 | (18.75) μg/ml
12 | YIVYKIRWARKRRKAL [BOL-72, YIVYKIRWARKRRKAL] | (12.5) μg/ml | 18.75 | 100 | 18.75 | 25 | 18.75 | 75 | 
13 | YIVWKIRSAWKRSKALK-OH [BOL-75, YIVWKIRSAWKRSKALK] | (37.5) μg/ml | 75 | 75 | 37.5 | 200 | 150 | 150 | 
14 | YIVRKIRSAWKRRKALK-OH [BOL-80, YIVRKIRSAWKRRKALK] | (18.75) μg/ml | 150 | >300 | 37.5 | >300 | >300 | >300 | 
15 | YIVYKIRSAWKRWKAL [BOL-67, YIVYKIRSAWKRWKAL] | (50) μg/ml | 37.5 | 25 | 18.75 | 100 | 100 | 25 | 
16 | YIVRKIRSAWKRWKALK-OH [BOL-79, YIVRKIRSAWKRWKALK] | (4.7) μg/ml | 2.35 | 3.125 | 4.7 | >300 | 300 | 9.375 | 
17 | YIVYKIRWARKRRKALK-OH [BOL-50, YIVYKIRWARKRRKALK] | (6.25) μg/ml | 9.375 | 50 | 9.375 | 25 | 18.75 | 37.5 | 
18 | YIVYKIRRAWKRWKALK-OH [BOL-55, YIVYKIRRAWKRWKALK] | (9.375) μg/ml | 3.125 | 12.5 | 9.375 | 50 | 37.5 | 12.5 | 
19 | YIVYKIRSAWKRWKALK-OH [BOL-45, YIVYKIRSAWKRWKALK] | (25) μg/ml | 4.7 | 12.5 | 18.75 | 100 | 100 | 18.75 | 
20 | YIVYKIRSAKKRKKALK-OH [BOL-56, YIVYKIRSAKKRKKALK] | (200) μg/ml | 300 | >300 |  | >300 | >300 | >300 | (300) μg/ml
